According to the NIST ThermoML archive (doi:10.1016/j.jct.2014.08.020):
Numbers after ± are expanded uncertainties.

Columns and labels:
[1] = molar enthalpy of vaporization or sublimation; details: 298.15 K; Liquid; Static calorimetry
[2] = molar heat capacity at constant pressure; details: 300.6 K; 101.33 kPa; Liquid; Drop calorimetry

Row | SMILES | molar enthalpy [1] [kcal/mol] | molar heat capacity at constant pressure [2] [J/K/mol]
1 | CCCCn1ccnc1 [1-butylimidazole] | 15.3 ± 0.153 | –
2 | CCCCCCCCn1ccnc1 [1-octylimidazole] | 19.4 ± 0.335 | 382.21 ± 23
3 | CCn1ccnc1 [1-ethyl-1H-imidazole] | 13.8 ± 0.237 | –
